Tests used:
B16 = assay: Concentration which produces 50% inhibition of proliferation of B16 melanoma cytotoxic cells after 40h of incubation was tested in vitro relative to paclitaxel (1); type: functional, Mus musculus
Tubulin (Bos taurus) = Tubulin (Bos taurus) (UniProt Q6B856+Q862L2+Q862F3); assay: Concentration which causes polymerization of 50% of the tubulin present in 15 min at 37 degree C was tested in vitro relative to paclitaxel (1); type: functional

SMILES	Ratio (Tubulin (Bos taurus))	Ratio (B16)
CC(=O)O[C@H]1C(=O)[C@]2(C)[C@@H](O)CC3OC[C@@]3(OC(C)=O)[C@H]2[C@H](OC(=O)c2ccccn2)[C@]2(O)C[C@H](OC(=O)[C@H](O)[C@@H](NC(=O)c3ccccc3)c3ccccc3)C(C)=C1C2(C)C (stereo partly drawn)	2.8	8.7
CC(=O)O[C@H]1C(=O)[C@]2(C)[C@@H](O)CC3OC[C@@]3(OC(C)=O)[C@H]2[C@H](OC(=O)c2ccncc2)[C@]2(O)C[C@H](OC(=O)[C@H](O)[C@@H](NC(=O)c3ccccc3)c3ccccc3)C(C)=C1C2(C)C (stereo partly drawn)	7.3	>36
CC(=O)O[C@H]1C(=O)[C@]2(C)[C@@H](O)CC3OC[C@@]3(OC(C)=O)[C@H]2[C@H](OC(=O)c2ccsc2)[C@]2(O)C[C@H](OC(=O)[C@H](O)[C@@H](NC(=O)c3ccccc3)c3ccccc3)C(C)=C1C2(C)C (stereo partly drawn)	1.4	2.1
CC(=O)O[C@H]1C(=O)[C@]2(C)[C@@H](O)CC3OC[C@@]3(OC(C)=O)[C@H]2[C@H](OC(=O)c2ccoc2)[C@]2(O)C[C@H](OC(=O)[C@H](O)[C@@H](NC(=O)c3ccccc3)c3ccccc3)C(C)=C1C2(C)C (stereo partly drawn)	2.1	8.2

Now from value to molecule, other results behind:

Ratio (Tubulin (Bos taurus))	SMILES	Ratio (B16)
2.4	CC(=O)O[C@H]1C(=O)[C@]2(C)[C@@H](O)CC3OC[C@@]3(OC(C)=O)[C@H]2[C@H](OC(=O)c2ccco2)[C@]2(O)C[C@H](OC(=O)[C@H](O)[C@@H](NC(=O)c3ccccc3)c3ccccc3)C(C)=C1C2(C)C (stereo partly drawn)	14
1	CC(=O)O[C@H]1C(=O)[C@@]2(C)[C@H]([C@H](OC(=O)c3ccccc3)[C@]3(O)C[C@H](OC(=O)[C@H](O)[C@@H](NC(=O)c4ccccc4)c4ccccc4)C(C)=C1C3(C)C)[C@]1(OC(C)=O)CO[C@@H]1C[C@@H]2O [PACLITAXEL]	1
2.6	CC(=O)O[C@H]1C(=O)[C@]2(C)[C@@H](O)CC3OC[C@@]3(OC(C)=O)[C@H]2[C@H](OC(=O)c2cccn2C)[C@]2(O)C[C@H](OC(=O)[C@H](O)[C@@H](NC(=O)c3ccccc3)c3ccccc3)C(C)=C1C2(C)C (stereo partly drawn)	2.6
4	CC(=O)O[C@H]1C(=O)[C@]2(C)[C@@H](O)CC3OC[C@@]3(OC(C)=O)[C@H]2[C@H](OC(=O)c2cccnc2)[C@]2(O)C[C@H](OC(=O)[C@H](O)[C@@H](NC(=O)c3ccccc3)c3ccccc3)C(C)=C1C2(C)C (stereo partly drawn)	>36
1.1	CC(=O)O[C@H]1C(=O)[C@]2(C)[C@@H](O)CC3OC[C@@]3(OC(C)=O)[C@H]2[C@H](OC(=O)c2cccs2)[C@]2(O)C[C@H](OC(=O)[C@H](O)[C@@H](NC(=O)c3ccccc3)c3ccccc3)C(C)=C1C2(C)C (stereo partly drawn)	3.8
